≈ marks a conversion by molar mass, not a printed value.
What was measured:
[1] = Drug metabolism in human liver microsomes assessed as oxidation of imdazopyridine core at 10 uM after 60 mins by LC/MS/MS analysis; assay type: ADME; conditions: 1 h
[2] = target: T1, P2X purinoceptor 7 (Mus musculus, UniProt Q9Z1M0); experiment: Antagonist activity at recombinant mouse P2X7 receptor expressed in human 1321N1 cells assessed as inhibition of Bz-ATP-induced Ca2+ flux preincubated for 30 mins followed by agonist addition measured after 180 sec by calcium-4 dye based FLIPR assay; assay type: cell-based
T1 sequence (Q9Z1M0 whole entry): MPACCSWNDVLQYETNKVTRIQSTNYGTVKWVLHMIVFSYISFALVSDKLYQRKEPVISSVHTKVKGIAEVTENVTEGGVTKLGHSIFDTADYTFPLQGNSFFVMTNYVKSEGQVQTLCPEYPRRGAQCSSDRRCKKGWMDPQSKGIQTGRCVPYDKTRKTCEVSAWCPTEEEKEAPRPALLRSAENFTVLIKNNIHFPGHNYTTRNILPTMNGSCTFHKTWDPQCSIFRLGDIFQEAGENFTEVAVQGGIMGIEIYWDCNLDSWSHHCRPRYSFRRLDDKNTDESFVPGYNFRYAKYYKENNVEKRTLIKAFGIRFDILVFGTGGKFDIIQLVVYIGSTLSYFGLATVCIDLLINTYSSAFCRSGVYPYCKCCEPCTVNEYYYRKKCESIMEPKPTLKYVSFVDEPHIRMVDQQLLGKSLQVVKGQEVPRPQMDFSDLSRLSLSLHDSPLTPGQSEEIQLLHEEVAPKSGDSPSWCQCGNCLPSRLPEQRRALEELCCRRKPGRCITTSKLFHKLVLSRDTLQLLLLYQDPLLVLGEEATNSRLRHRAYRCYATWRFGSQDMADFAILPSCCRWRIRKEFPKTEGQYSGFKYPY

[3] = Protein binding in human plasma at 1 uM after 6 hrs by LC/MS/MS based equilibrium dialysis method; assay type: ADME, cell-free; conditions: read-out: PPB (converted)
[4] = Protein binding in rat plasma at 1 uM after 6 hrs by LC/MS/MS based equilibrium dialysis method; assay type: ADME, cell-free; conditions: read-out: PPB (converted)
[5] = target: T1, P2X purinoceptor 7; experiment: Antagonist activity at P2X7 receptor in LPS-stimulated mouse whole blood assessed as inhibition of Bz-ATP-induced IL-1beta release incubated for 30 mins after LPS stimulation for 1 hr followed by agonist addition measured after […] by ELISA; assay type: tissue-based
[6] = Protein binding in mouse plasma at 1 uM after 6 hrs by LC/MS/MS analysis; assay type: ADME, cell-free; conditions: read-out: PPB (converted)
[7] = system: Rattus norvegicus; experiment: Ex vivo receptor occupancy at P2X7 receptor in po dosed rat brain hippocampal tissue assessed as plasma concentration required for [3H]-(S)-7-(2-chloro-3-(trifluoromethyl)benzyl)-6-methyl-3-(pyrazin-2-yl)-6,7-dihydro-[1,2,4]triazolo[4,3-a]pyrazin-8(5H)-one displacement after 30 mins; assay type: functional, organism-based
[8] = Clearance in Sprague-Dawley rat at 1 mg/kg, iv after 0.033 to 24 hrs by LC/MS/MS analysis; assay type: ADME, organism-based; conditions: in vivo
[9] = Clearance in Beagle dog at 1 mg/kg, iv after 0.033 to 24 hrs by LC/MS/MS analysis; assay type: ADME, organism-based, Canis lupus familiaris; conditions: in vivo
[10] = Clearance in cynomolgus monkey at 1 mg/kg, iv after 0.033 to 24 hrs by LC/MS/MS analysis; assay type: ADME, organism-based, Macaca fascicularis; conditions: in vivo
[11] = Volume of distribution at steady state in Sprague-Dawley rat at 1 mg/kg, iv after 0.033 to 24 hrs by LC/MS/MS analysis; assay type: ADME, organism-based; conditions: in vivo, read-out: Vdss
[12] = Volume of distribution at steady state in Beagle dog at 1 mg/kg, iv after 0.033 to 24 hrs by LC/MS/MS analysis; assay type: ADME, organism-based, Canis lupus familiaris; conditions: in vivo, read-out: Vdss
[13] = Volume of distribution at steady state in cynomolgus monkey at 1 mg/kg, iv after 0.033 to 24 hrs by LC/MS/MS analysis; assay type: ADME, organism-based, Macaca fascicularis; conditions: in vivo, read-out: Vdss
[14] = Half life in Sprague-Dawley rat at 1 mg/kg, iv by LC/MS/MS analysis; assay type: ADME, organism-based; conditions: in vivo
[15] = Half life in Beagle dog at 1 mg/kg, iv by LC/MS/MS analysis; assay type: ADME, organism-based, Canis lupus familiaris; conditions: in vivo
[16] = Cmax in Sprague-Dawley rat at 5 mg/kg, po after 0.033 to 24 hrs by LC/MS/MS analysis; assay type: ADME, organism-based; set-up: dose 5 mg/kg, route oral; conditions: in vivo
[17] = Cmax in Beagle dog at 5 mg/kg, po after 0.033 to 24 hrs by LC/MS/MS analysis; assay type: ADME, organism-based, Canis lupus familiaris; set-up: dose 5 mg/kg, route oral; conditions: in vivo
[18] = Tmax in Sprague-Dawley rat at 5 mg/kg, po after 0.033 to 24 hrs by LC/MS/MS analysis; assay type: ADME, organism-based; conditions: in vivo
[19] = Tmax in cynomolgus monkey at 5 mg/kg, po after 0.033 to 24 hrs by LC/MS/MS analysis; assay type: ADME, organism-based, Macaca fascicularis; conditions: in vivo
[20] = Oral bioavailability in Beagle dog at 5 mg/kg after 0.033 to 24 hrs by LC/MS/MS analysis; assay type: ADME, organism-based, Canis lupus familiaris; conditions: in vivo
[21] = system: Rattus norvegicus; experiment: Toxicity in rat assessed as increase in total serum cholesterol at 125 to 250 mg/kg, po administered for 4 days followed by necropsy on day 5 post treatment by histological analysis; assay type: organism-based; conditions: in vivo, 96 h
[22] = system: Rattus norvegicus; experiment: Toxicity in rat assessed as central lobular hepatocellular degeneration at 250 mg/kg/day, po administered for 4 days followed by necropsy on day 5 post treatment by histological analysis; assay type: organism-based; conditions: in vivo, 96 h
[23] = target: T2, CYP3A4 (Homo sapiens, UniProt P08684); experiment: Inhibition of CYP3A4 in human liver microsomes using midazolam as substrate assessed as reduction in 1-OH-midazolam formation at 1.25 uM by LC/MS/MS analysis; assay type: ADME; conditions: probe midazolam
[24] = target: T2, CYP3A4; experiment: Inhibition of CYP3A4 in human liver microsomes using midazolam as substrate assessed as reduction in 1-OH-midazolam formation at 2.5 uM by LC/MS/MS analysis; assay type: ADME; conditions: probe midazolam
[25] = target: T2, CYP3A4; experiment: Inhibition of CYP3A4 in human liver microsomes using midazolam as substrate assessed as reduction in 1-OH-midazolam formation at 5 uM by LC/MS/MS analysis; assay type: ADME; conditions: probe midazolam
[26] = target: T2, CYP3A4; experiment: Inhibition of CYP3A4 in human liver microsomes using midazolam as substrate assessed as reduction in 1-OH-midazolam formation at 10 uM by LC/MS/MS analysis; assay type: ADME; conditions: probe midazolam
[27] = Permeability from basolateral to apical side in human Caco2 cells at 10 uM after […] by LC/MS/MS analysis; assay type: ADME, cell-based; conditions: Caco-2, read-out: permeability
[28] = Permeability from apical to basolateral side in human Caco2 cells at 10 uM after 60 mins by LC/MS/MS analysis; assay type: ADME, cell-based; conditions: Caco-2, read-out: permeability
[29] = system: Rattus norvegicus; experiment: Toxicity in rat assessed as induction of central lobular hepatocellular necrosis at 250 mg/kg/day, po administered for 4 days followed by necropsy on day 5 post treatment by histological analysis; assay type: organism-based; conditions: in vivo, 96 h
[30] = Brain tissue binding in rat brain homogenate at 5 uM after 5 hrs by LC/MS/MS analysis; conditions: in vitro
[31] = Solubility of compound in phosphate buffer at pH 2 at room temperature after 3 days
[32] = Solubility of the compound in phosphate buffer at pH 7 at room temperature after 3 days

T2 sequence (P08684 whole entry): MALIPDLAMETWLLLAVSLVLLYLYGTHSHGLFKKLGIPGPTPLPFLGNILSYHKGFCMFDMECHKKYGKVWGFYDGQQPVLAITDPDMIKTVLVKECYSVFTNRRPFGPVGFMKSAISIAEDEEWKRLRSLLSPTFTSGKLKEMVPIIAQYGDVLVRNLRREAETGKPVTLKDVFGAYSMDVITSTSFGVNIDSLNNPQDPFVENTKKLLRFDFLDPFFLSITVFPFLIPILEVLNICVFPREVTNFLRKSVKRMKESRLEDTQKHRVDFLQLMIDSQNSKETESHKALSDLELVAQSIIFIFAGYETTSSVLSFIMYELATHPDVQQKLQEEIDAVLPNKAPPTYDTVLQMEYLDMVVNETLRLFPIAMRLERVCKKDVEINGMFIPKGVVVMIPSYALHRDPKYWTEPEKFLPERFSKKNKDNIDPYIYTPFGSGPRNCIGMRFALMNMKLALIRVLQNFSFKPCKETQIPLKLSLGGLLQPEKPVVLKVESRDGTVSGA

Structure (SMILES): C[C@@H]1c2ncn(-c3ccc(F)cn3)c2CCN1C(=O)c1cccc(C(F)(F)F)c1Cl
- Drug metabolism [1]: Metabolite_Detected
- IC50 [2]: 0.072 µM
- fraction unbound at 6 h, 1 µM [3]: 0.055
- fraction unbound at 6 h, 1 µM [4]: 0.051
- IC50 [5]: 0.16 µM
- fraction unbound at 6 h, 1 µM [6]: 0.045
- fIC50 [7]: 15 nM
- EC50 ([7]; Rattus norvegicus, P2X7, Brain/Plasma): 0.125 mg/L (≈ 0.285 µM)
- clearance [8]: 1.8 L/h/kg
- clearance [9]: 0.33 L/h/kg
- clearance [10]: 0.84 L/h/kg
- Vd [11]: 3.8 L/kg
- Vd [12]: 3.6 L/kg
- Vd [13]: 2.1 L/kg
- half-life [14]: 1.7 h
- half-life [15]: 11.9 h
- Cmax [16]: 0.375 µg/mL
- Cmax [17]: 1.25 µg/mL
- Tmax [18]: 1 h
- Tmax [19]: 2.3 h
- bioavailability [20]: > 100%
- Activity [21]: Toxic
- Activity [22]: Toxic
- inhibition at 1.25 µM [23]: 41%
- inhibition at 2.5 µM [24]: 52%
- inhibition at 5 µM [25]: 63%
- inhibition at 10 µM [26]: 74%
- Papp B→A at 10 µM [27]: 350 nm/s
- Papp A→B at 1 h, 10 µM [28]: 650 nm/s
- Activity [29]: Toxic
- Brain tissue binding [30]: 98.5%
- solubility at 72 h [31]: > 400 µM
- solubility at 72 h [32]: 29 µM (≈ 12.7 µg/mL)

— ChEMBL document CHEMBL3856233, “Identification of (R)-(2-Chloro-3-(trifluoromethyl)phenyl)(1-(5-fluoropyridin-2-yl)-4-methyl-6,7-dihydro-1H-imidazo[4,5-c]pyridin-5(4H)-yl)methanone (JNJ 54166060), a Small Molecule Antagonist of the P2X7 receptor” (J Med Chem, 2016)
